Test results reported in PubChem BioAssay AID328 (DTP/NCI, 2004).
Several values for one entry are separate records, joined by “and”; a condition that tells them apart may be missing. Identical values can stand only once. Inconclusive results and toxic doses are left out.

Test system: BDF1 mice, P388 leukemia ip, median survival T/C
Test: NCI In Vivo Anticancer Drug Screen. Data for tumor model P388 Leukemia (intraperitoneal) in B6D2F1 (BDF1) mice
Conditions: endpoint: median survival time, higher = longer survival
Outline: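 Mice carrying the transplantable tumour receive compound or vehicle. Survival is followed in each arm, and the treated measure is divided by the vehicle measure.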

## C[n+]1ccc(Nc2ccc(NC(=O)c3ccc(Nc4cc[n+](C)c5ccc(N)cc45)cc3)cc2)cc1
dose: 1.0 mg/kg/injection, schedule: Q01DX009 (ip), vehicle: Klucel (hydroxypropylcellulose) (HPC)
  T/C: 211 % of control
dose: 2.0 mg/kg/injection, schedule: Q01DX009 (ip), vehicle: Klucel (hydroxypropylcellulose) (HPC)
  T/C: 170 % of control and 195 % of control
dose: 3.24 mg/kg/injection, schedule: Q04DX003 (ip), vehicle: water
  T/C: 173 % of control
dose: 4.0 mg/kg/injection, schedule: Q01DX009 (ip), vehicle: Klucel (hydroxypropylcellulose) (HPC)
  T/C: 243 % of control and 250 % of control
dose: 4.32 mg/kg/injection, schedule: Q01DX009 (ip), vehicle: water
  T/C: 254 % of control
dose: 5.4 mg/kg/injection, schedule: Q04DX003 (ip), vehicle: water
  T/C: 180 % of control
dose: 7.2 mg/kg/injection, schedule: Q01DX009 (ip), vehicle: water
  T/C: 261 % of control
dose: 8.0 mg/kg/injection, schedule: Q01DX009 (ip), vehicle: Klucel (hydroxypropylcellulose) (HPC)
  T/C: 244 % of control and 250 % of control
dose: 9.0 mg/kg/injection, schedule: Q04DX003 (ip), vehicle: water
  T/C: 220 % of control
dose: 15.0 mg/kg/injection, schedule: Q04DX003 (ip), vehicle: water
  T/C: 103 % of control

## O=C(C=C(C(F)(F)F)C(F)(F)F)c1ccc(Cl)cc1
dose: 6.25 mg/kg/injection, schedule: Q01DX009 (ip), vehicle: saline with Tween-80
  T/C: 100 % of control
dose: 12.5 mg/kg/injection, schedule: Q01DX009 (ip), vehicle: saline with Tween-80
  T/C: 100 % of control
dose: 25.0 mg/kg/injection, schedule: Q01DX009 (ip), vehicle: saline with Tween-80
  T/C: 118 % of control

## C/C=C/C1=C(Cl)C(=O)[C@@H](Cl)[C@@]1(O)C(=O)OC
dose: 0.31 mg/kg/injection, schedule: Q01DX009 (ip), vehicle: saline with Tween-80
  T/C: 106 % of control
dose: 0.63 mg/kg/injection, schedule: Q01DX009 (ip), vehicle: saline with Tween-80
  T/C: 115 % of control
dose: 1.25 mg/kg/injection, schedule: Q01DX009 (ip), vehicle: saline with Tween-80
  T/C: 106 % of control and 117 % of control
dose: 2.5 mg/kg/injection, schedule: Q01DX001 (ip), vehicle: saline with Tween-80
  T/C: 106 % of control
dose: 2.5 mg/kg/injection, schedule: Q04DX003 (ip), vehicle: saline with Tween-80
  T/C: 105 % of control
dose: 4.4 mg/kg/injection, schedule: Q01DX009 (ip), vehicle: saline with Tween-80
  T/C: 121 % of control
dose: 5.0 mg/kg/injection, schedule: Q01DX001 (ip), vehicle: saline with Tween-80
  T/C: 101 % of control
dose: 5.0 mg/kg/injection, schedule: Q04DX003 (ip), vehicle: saline with Tween-80
  T/C: 110 % of control
dose: 6.6 mg/kg/injection, schedule: Q01DX009 (ip), vehicle: saline with Tween-80
  T/C: 122 % of control
dose: 8.8 mg/kg/injection, schedule: Q01DX009 (ip), vehicle: saline with Tween-80
  T/C: 114 % of control
dose: 10.0 mg/kg/injection, schedule: Q01DX001 (ip), vehicle: saline with Tween-80
  T/C: 108 % of control
dose: 10.0 mg/kg/injection, schedule: Q04DX003 (ip), vehicle: saline with Tween-80
  T/C: 108 % of control
dose: 13.3 mg/kg/injection, schedule: Q01DX009 (ip), vehicle: saline with Tween-80
  T/C: 123 % of control
dose: 17.0 mg/kg/injection, schedule: Q01DX001 (ip), vehicle: saline with Tween-80
  T/C: 119 % of control
dose: 20.0 mg/kg/injection, schedule: Q01DX001 (ip), vehicle: saline with Tween-80
  T/C: 112 % of control

## CNC1C(OC2C(OC3C(O)C(O)C(N=C(N)N)C(O)C3N=C(N)N)OC(C)C2(O)C=O)OC(CO)C(O)C1O (configuration not stated)
dose: 100.0 mg/kg/injection, schedule: Q01DX009 (ip), vehicle: water
  T/C: 103 % of control
dose: 200.0 mg/kg/injection, schedule: Q01DX009 (ip), vehicle: water
  T/C: 112 % of control
dose: 400.0 mg/kg/injection, schedule: Q01DX009 (ip), vehicle: water
  T/C: 103 % of control

## CSCS(=O)C[C@H](CO)NC(=O)/C=C/c1c(C)[nH]c(=O)[nH]c1=O (some centres not stated)
dose: 0.15 mg/kg/injection, schedule: Q01DX010 (ip), vehicle: saline
  T/C: 109 % of control
dose: 0.3 mg/kg/injection, schedule: Q01DX010 (ip), vehicle: saline
  T/C: 122 % of control
dose: 0.6 mg/kg/injection, schedule: Q01DX010 (ip), vehicle: saline
  T/C: 172 % of control
dose: 0.72 mg/kg/injection, schedule: Q04DX003 (ip), vehicle: saline
  T/C: 105 % of control
dose: 0.78 mg/kg/injection, schedule: Q04DX002 (ip), vehicle: Klucel (hydroxypropylcellulose) (HPC)
  T/C: 100 % of control and 109 % of control
dose: 0.86 mg/kg/injection, schedule: Q04DX003 (ip), vehicle: saline
  T/C: 108 % of control
dose: 1.0 mg/kg/injection, schedule: Q04DX003 (ip), vehicle: saline
  T/C: 121 % of control
dose: 1.2 mg/kg/injection, schedule: Q01DX010 (ip), vehicle: saline
  T/C: 100 % of control
dose: 1.2 mg/kg/injection, schedule: Q04DX003 (ip), vehicle: saline
  T/C: 123 % of control
dose: 1.56 mg/kg/injection, schedule: Q04DX002 (ip), vehicle: Klucel (hydroxypropylcellulose) (HPC)
  T/C: 109 % of control
dose: 2.0 mg/kg/injection, schedule: Q04DX003 (ip), vehicle: saline
  T/C: 156 % of control
dose: 2.4 mg/kg/injection, schedule: Q04DX003 (ip), vehicle: saline
  T/C: 97 % of control
dose: 3.33 mg/kg/injection, schedule: Q04DX003 (ip), vehicle: saline
  T/C: 106 % of control
dose: 6.25 mg/kg/injection, schedule: Q04DX002 (ip), vehicle: Klucel (hydroxypropylcellulose) (HPC)
  T/C: 118 % of control
dose: 173.0 micrograms/kg/injection, schedule: Q01DX009 (ip), vehicle: saline
  T/C: 106 % of control
dose: 288.0 micrograms/kg/injection, schedule: Q01DX009 (ip), vehicle: saline
  T/C: 110 % of control
dose: 480.0 micrograms/kg/injection, schedule: Q01DX009 (ip), vehicle: saline
  T/C: 99 % of control

## O=Cc1ccc(OC(=O)Nc2ccccc2)cc1
dose: 100.0 mg/kg/injection, schedule: Q04DX003 (ip), vehicle: saline with Tween-80
  T/C: 113 % of control
dose: 200.0 mg/kg/injection, schedule: Q04DX003 (ip), vehicle: saline with Tween-80
  T/C: 122 % of control
dose: 400.0 mg/kg/injection, schedule: Q04DX003 (ip), vehicle: saline with Tween-80
  T/C: 86 % of control

## CN(Cc1ccco1)NC(=O)C(=O)NCc1ccco1
dose: 12.5 mg/kg/injection, schedule: Q01DX005 (ip), vehicle: saline with Tween-80
  T/C: 95 % of control
dose: 25.0 mg/kg/injection, schedule: Q01DX005 (ip), vehicle: saline with Tween-80
  T/C: 95 % of control
dose: 50.0 mg/kg/injection, schedule: Q01DX005 (ip), vehicle: saline with Tween-80
  T/C: 88 % of control

## CC(=O)Nc1ccc2nc3ccc(NC(C)=O)cc3[n+](-c3ccccc3)c2c1
dose: 31.3 mg/kg/injection, schedule: Q01DX010 (ip), vehicle: saline
  T/C: 168 % of control
dose: 62.5 mg/kg/injection, schedule: Q01DX010 (ip), vehicle: saline
  T/C: 172 % of control
dose: 125.0 mg/kg/injection, schedule: Q01DX010 (ip), vehicle: saline
  T/C: 181 % of control
dose: 250.0 mg/kg/injection, schedule: Q01DX010 (ip), vehicle: saline
  T/C: 150 % of control

## CN(C)c1ccc(C(O)(Cc2cccnc2)c2ccc(N(C)C)cc2)cc1
dose: 50.0 mg/kg/injection, schedule: Q01DX009 (ip), vehicle: saline with Tween-80
  T/C: 113 % of control
dose: 100.0 mg/kg/injection, schedule: Q01DX009 (ip), vehicle: saline with Tween-80
  T/C: 100 % of control
dose: 200.0 mg/kg/injection, schedule: Q01DX009 (ip), vehicle: saline with Tween-80
  T/C: 96 % of control

## CC1C=NNC1=O (configuration not stated)
dose: 100.0 mg/kg/injection, schedule: Q01DX001 (ip), vehicle: saline with Tween-80
  T/C: 95 % of control and 118 % of control
dose: 175.0 mg/kg/injection, schedule: Q01DX001 (ip), vehicle: saline with Tween-80
  T/C: 100 % of control
dose: 176.0 mg/kg/injection, schedule: Q01DX009 (ip), vehicle: Klucel (hydroxypropylcellulose) (HPC)
  T/C: 120 % of control
dose: 200.0 mg/kg/injection, schedule: Q01DX001 (ip), vehicle: saline with Tween-80
  T/C: 104 % of control
dose: 265.0 mg/kg/injection, schedule: Q01DX001 (ip), vehicle: saline with Tween-80
  T/C: 100 % of control
dose: 400.0 mg/kg/injection, schedule: Q01DX001 (ip), vehicle: saline with Tween-80
  T/C: 100 % of control
dose: 600.0 mg/kg/injection, schedule: Q01DX001 (ip), vehicle: saline with Tween-80
  T/C: 109 % of control

## OC(c1ccc(Cl)cc1)(c1ccc(Cl)cc1)C(F)(F)F
dose: 100.0 mg/kg/injection, schedule: Q01DX009 (sc), vehicle: olive oil, sesame oil, peanut oil
  T/C: 96 % of control
dose: 100.0 mg/kg/injection, schedule: Q04DX003 (sc), vehicle: olive oil, sesame oil, peanut oil
  T/C: 109 % of control
dose: 200.0 mg/kg/injection, schedule: Q04DX003 (sc), vehicle: olive oil, sesame oil, peanut oil
  T/C: 100 % of control
dose: 400.0 mg/kg/injection, schedule: Q04DX003 (sc), vehicle: olive oil, sesame oil, peanut oil
  T/C: 95 % of control
